Source: US10570179B2, “Substituted urea depsipeptide analogs as activators of the CLPP endopeptidase” (priority 2016, dated 2020)
Numbered stars: 1 amine (or outer) side, 2 acyl side, 3 side chain; on linkers, the order of the positions; unused ones are H or OH. Bridge positions count the residues as written; N and C are the ends. Square brackets hold non-standard residues; d marks the D form. Peptide text beside a SMILES is read from it. * marks the point of attachment. X5 = O=C([C@@H]1C[C@@H](OP(=O)(O)O)CN1[*:1])[*:2]; Phe(3-Me) = Cc1cccc(C[C@H](N)C(=O)O)c1; Pro(4S-Me) = C[C@@H]1CN[C@H](C(=O)O)C1; NH(4-Cl-2-F-phenyl) = Fc1cc(Cl)ccc1N*; Pro(4R-Me) = C[C@H]1CN[C@H](C(=O)O)C1; Propanoyl(3-NMe2) = CN(C)CCC(=O)*; Hyp = O=C(O)[C@@H]1C[C@@H](O)CN1; NH(4-Et-phenyl) = CCc1ccc(N*)cc1; NH(4-Me-phenyl) = Cc1ccc(N*)cc1; aThr = C[C@H](O)[C@H](N)C(=O)O; Pip = O=C(O)[C@@H]1CCCCN1; 4Abz = Nc1ccc(C(=O)O)cc1; X3 = c1cc2c(cc1N*)OCCO2; CO = O=C([*:1])[*:2]; X2 = Fc1cc(N*)ccc1Cl

Experiments:
[1] = Microsomal metabolic stability; assay type: in vitro ADME, human
[2] = Plasma protein binding, rapid equilibrium dialysis; assay type: in vitro ADME, human; settings: 10 μM
Summary of the method: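 Compound spiked at 10 μM (0.1% DMSO) into human plasma, dialysed against DPBS pH 7.4 across 8 K MWCO RED membrane for 4 h at 37 °C with shaking. Both chambers quantified by LC-MS against warfarin internal standard; % free = buffer/plasma concentration ×100, % bound = 100 − % free.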

Plasma stability assay = assay type: in vitro ADME, mouse
Summary of the method: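 Compounds at 10 μM final in human or mouse plasma, incubated at 37 °C and sampled at 0, 3, 24 and 48 h in triplicate. Reactions quenched with cold acetonitrile containing warfarin internal standard; parent measured by LC-MS. Half-life from least-squares first-order fit.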

[3] = microsomal metabolic stability half-life, human liver microsomes
[4] = plasma binding, % Bound, human plasma
[5] = plasma stability half-life, mouse plasma, 37° C.

SMILES	Human ([1]; human, pH 7.4)	Human ([2]; human, 4 h, pH 7.4) [%]	Mouse (Plasma stability assay; mouse, 10 μM) [h]	Human [1, 3]	Human [2, 4] [%]	Mouse (Plasma stability assay; [5]) [h]	Mouse (hr) (Plasma stability assay; mouse, 10 μM)
Cc1cccc(C[C@H](NC(=O)Nc2ccc(Cl)c(F)c2)C(=O)N[C@@H]2C(=O)N3CCC[C@H]3C(=O)N3CCCC[C@H]3C(=O)N[C@@H](C)C(=O)N3C[C@H](C)C[C@H]3C(=O)O[C@H]2C)c1 [Compound 35, (S)-2-(3-(4-CHLORO-3-FLUOROPHENYL)UREIDO)-3-(M-TOLYL)-N-((2R,6S,8AS,14AS,20S,21S,23AS)-2,6,21-TRIMETHYL-5,8,14,19,23-PENTAOXOOCTADECAHYDRO-1H,5H,14H,19H-PYRIDO[2,1-I]DIPYRROLO[2,1-C:2′,1′-L][1]OXA[4,7,10,13]TETRAAZACYCLOHEXADECIN-20-YL)PROPANAMIDE] ({X2-CO}-[Phe(3-Me)][aThr]P[Pip]A[Pro(4R-Me)]; ester 2-C)	1.14 ± .145 h	99.9 ± 9.9	>50	–	–	–	–
CCc1ccc(NC(=O)N[C@@H](Cc2cccc(C)c2)C(=O)N[C@@H]2C(=O)N3C[C@H](O)C[C@H]3C(=O)N3CCCC[C@H]3C(=O)N[C@@H](C)C(=O)N3C[C@H](C)C[C@H]3C(=O)O[C@H]2C)cc1 [Compound 25, (S)-2-(3-(4-ETHYLPHENYL)UREIDO)-N-((2R,6S,8AS,14AS,16R,20S,21S,23AS)-16-HYDROXY-2,6,21-TRIMETHYL-5,8,14,19,23-PENTAOXOOCTADECAHYDRO-1H,5H,14H,19H-PYRIDO[2,1-I]DIPYRROLO[2,1-C:2′,1′-L][1]OXA[4,7,10,13]TETRAAZACYCLOHEXADECIN-20-YL)-3-(M-TOLYL)PROPANAMIDE] ({NH(4-Et-phenyl)-CO}-[Phe(3-Me)][aThr][Hyp][Pip]A[Pro(4R-Me)]; ester 2-C)	15.19 ± 2.47 h	99.2 ± 0.3	>50	–	–	–	–
Cc1cccc(C[C@H](NC(=O)Nc2ccc(Cl)cc2F)C(=O)N[C@@H]2C(=O)N3C[C@H](OP(=O)(O)O)C[C@H]3C(=O)N3CCCC[C@H]3C(=O)N[C@@H](C)C(=O)N3C[C@H](C)C[C@H]3C(=O)O[C@H]2C)c1 [Compound 29, (2R,6S,8AS,14AS,16R,20S,21S,23AS)-20-((S)-2-(3-(4-CHLORO-2-FLUOROPHENYL)UREIDO)-3-(M-TOLYL)PROPANAMIDO)-2,6,21-TRIMETHYL-5,8,14,19,23-PENTAOXOOCTADECAHYDRO-1H,5H,14H,19H-PYRIDO[2,1-I]DIPYRROLO[2,1-C:2′,1′-L][1]OXA[4,7,10,13]TETRAAZACYCLOHEXADECIN-16-YL DIHYDROGEN PHOSPHATE] ({NH(4-Cl-2-F-phenyl)-CO}-[Phe(3-Me)][aThr][X5][Pip]A[Pro(4R-Me)]; ester 2-C)	–	–	–	>4 h	98.8 ± 8.8	102.25	–
Cc1cccc(C[C@H](NC(=O)Nc2ccc3c(c2)OCCO3)C(=O)N[C@@H]2C(=O)N3C[C@H](O)C[C@H]3C(=O)N3CCCC[C@H]3C(=O)N[C@@H](C)C(=O)N3C[C@H](C)C[C@H]3C(=O)O[C@H]2C)c1 [Compound 28, (S)-2-(3-(2,3-DIHYDROBENZO[B][1,4]DIOXIN-6-YL)UREIDO)-N-((2R,6S,8AS,14AS,16R,20S,21S,23AS)-16-HYDROXY-2,6,21-TRIMETHYL-5,8,14,19,23-PENTAOXOOCTADECAHYDRO-1H,5H,14H,19H-PYRIDO[2,1-I]DIPYRROLO[2,1-C:2′,1′-L][1]OXA[4,7,10,13]TETRAAZACYCLOHEXADECIN-20-YL)-3-(M-TOLYL)PROPANAMIDE] ({X3-CO}-[Phe(3-Me)][aThr][Hyp][Pip]A[Pro(4R-Me)]; ester 2-C)	0.18 ± .185 h	92.9 ± 2.9	>50	–	–	–	–
Cc1cccc(C[C@H](NC(=O)Nc2ccc3c(c2)OCO3)C(=O)N[C@H]2COC(=O)[C@@H]3C[C@@H](C)CN3C(=O)[C@H](C)NC(=O)[C@@H]3CCCCN3C(=O)[C@@H]3CCCN3C2=O)c1 [Compound 23, (S)-2-(3-(BENZO[D][1,3]DIOXOL-5-YL)UREIDO)-N-((2R,6S,8AS,14AS,20S,23AS)-2,6-DIMETHYL-5,8,14,19,23-PENTAOXOOCTADECAHYDRO-1H,5H,14H,19H-PYRIDO[2,1-I]DIPYRROLO[2,1-C:2′,1′-L][1]OXA[4,7,10,13]TETRAAZACYCLOHEXADECIN-20-YL)-3-(M-TOLYL)PROPANAMIDE]	30.2 ± 11.7 h	97.1 ± 0.2	27.31	–	–	–	–
CCOC(=O)c1ccc(NC(=O)N[C@@H](Cc2cccc(C)c2)C(=O)N[C@@H]2C(=O)N3C[C@H](O)C[C@H]3C(=O)N3CCCC[C@H]3C(=O)N[C@@H](C)C(=O)N3C[C@H](C)C[C@H]3C(=O)O[C@H]2C)cc1 [Compound 36, ETHYL 4-(3-((S)-1-(((2R,6S,8AS,14AS,16R,20S,21S,23AS)-16-HYDROXY-2,6,21-TRIMETHYL-5,8,14,19,23-PENTAOXOOCTADECAHYDRO-1H,5H,14H,19H-PYRIDO[2,1-I]DIPYRROLO[2,1-C:2′,1′-L][1]OXA[4,7,10,13]TETRAAZACYCLOHEXADECIN-20-YL)AMINO)-1-OXO-3-(M-TOLYL)PROPAN-2-YL)UREIDO)BENZOATE] ({OEt-4Abz-CO}-[Phe(3-Me)][aThr][Hyp][Pip]A[Pro(4R-Me)]; ester 2-C)	–	–	–	4.81 ± .815 h	98.3 ± 8.3	0.30	–
Cc1cccc(C[C@H](NC(=O)Nc2ccc(Cl)cc2F)C(=O)N[C@@H]2C(=O)N3CCC[C@H]3C(=O)N3CCCC[C@H]3C(=O)N[C@@H](C)C(=O)N3C[C@H](C)C[C@H]3C(=O)O[C@H]2C)c1 [Compound 3, (S)-2-(3-(4-CHLORO-2-FLUOROPHENYL)UREIDO)-3-(M-TOLYL)-N-((2R,6S,8AS,14AS,20S,21S,23AS)-2,6,21-TRIMETHYL-5,8,14,19,23-PENTAOXOOCTADECAHYDRO-1H,5H,14H,19H-PYRIDO[2,1-I]DIPYRROLO[2,1-C:2′,1′-L][1]OXA[4,7,10,13]TETRAAZACYCLOHEXADECIN-20-YL)PROPANAMIDE] ({NH(4-Cl-2-F-phenyl)-CO}-[Phe(3-Me)][aThr]P[Pip]A[Pro(4R-Me)]; ester 2-C)	4.68 ± 0.78 h	99.0 ± 0.1	–	–	–	–	>>48 hr
Cc1cccc(C[C@H](NC(=O)Nc2ccc(Cl)cc2F)C(=O)N[C@@H]2C(=O)N3C[C@H](OC(=O)CCN(C)C)C[C@H]3C(=O)N3CCCC[C@H]3C(=O)N[C@@H](C)C(=O)N3C[C@H](C)C[C@H]3C(=O)O[C@H]2C)c1 [Compound 46, (2R,6S,8AS,14AS,16R,20S,21S,23AS)-20-((S)-2-(3-(4-CHLORO-2-FLUOROPHENYL)UREIDO)-3-(M-TOLYL)PROPANAMIDO)-2,6,21-TRIMETHYL-5,8,14,19,23-PENTAOXOOCTADECAHYDRO-1H,5H,14H,19H-PYRIDO[2,1-I]DIPYRROLO[2,1-C:2′,1′-L][1]OXA[4,7,10,13]TETRAAZACYCLOHEXADECIN-16-YL 3-(DIMETHYLAMINO)PROPANOATE] ({NH(4-Cl-2-F-phenyl)-CO}-[Phe(3-Me)][aThr][Hyp](Propanoyl(3-NMe2))[Pip]A[Pro(4R-Me)]; ester 2-C)	2.09 ± 0.14 h	99.5 ± 0.3	0.49	–	–	–	–
Cc1ccc(NC(=O)N[C@@H](Cc2cccc(C)c2)C(=O)N[C@@H]2C(=O)N3CCC[C@H]3C(=O)N3CCCC[C@H]3C(=O)N[C@@H](C)C(=O)N3C[C@@H](C)C[C@H]3C(=O)O[C@H]2C)cc1 [Compound 45, (S)-3-(M-TOLYL)-2-(3-(P-TOLYL)UREIDO)-N-((2S,6S,8AS,14AS,20S,21S,23AS)-2,6,21-TRIMETHYL-5,8,14,19,23-PENTAOXOOCTADECAHYDRO-1H,5H,14H,19H-PYRIDO[2,1-I]DIPYRROLO[2,1-C:2′,1′-L][1]OXA[4,7,10,13]TETRAAZACYCLOHEXADECIN-20-YL)PROPANAMIDE] ({NH(4-Me-phenyl)-CO}-[Phe(3-Me)][aThr]P[Pip]A[Pro(4S-Me)]; ester 2-C)	–	–	–	2.77 ± 0.3 h	97.3 ± 0.3	>50	–
